Test results taken from patent US8067189B2, “Methods for determining sensitivity to vascular endothelial growth factor receptor-2 modulators by measuring the level of collagen type IV” (Bristol-Myers Squibb Company, priority 2005, dated 2011).

Assays:
Collagen type IV = assay: ELISA of blood samples from tumor bearing mice; assay type: in vivo, mouse; conditions: 100 mg/kg 1 qd×14 days
Procedure: (§1) Tumors were propagated in nude mice as subcutaneous (sc) transplants using L2987 and HCT-116 cancer cell lines. Tumor passage occurred approximately every two to four weeks. Tumors were then allowed to grow to the pre-determined size window (100-200 mm^3, tumors outside the range were excluded) and animals were evenly distributed to various treatment and control groups. Animals were treated with the example VEGFR-2 inhibitor (100 mg/kg 1 qd×14 days). Treated animals were checked daily for treatment related toxicity/mortality. Each group of animals was weighed before the initiation of treatment (Wt1) and then again following the last treatment dose (Wt2). […] Tumor response was determined by measurement of tumors with a caliper twice a week, until the tumors reached a predetermined target size. […]
(§2) An ELISA method for the detection and measurement of Collagen Type IV and VE-Cadherin on human plasma or any biological sample where the proteins must be detected and measured is described. […] The reaction was terminated by addition of acid and absorbance was measured at 450 nm. A standard curve was prepared from collagen type IV standard dilutions and collagen type IV samples concentration determined. […] The reaction was terminated by addition of acid and absorbance was measured at 450 nm. A standard curve was prepared from VE-cadherin standard dilutions and VE-cadherin samples concentration determined. […]

VE-Cadherin = assay: ELISA of blood samples from tumor bearing mice; assay type: in vivo, mouse; conditions: 100 mg/kg 1 qd×14 days
Procedure: as §1, §2

[1] = tested on: advanced or metastatic solid tumors; assay: Clinical response in phase I dose escalation study CA182-002; assay type: in vivo, human; conditions: 600 mg/day
Procedure: Blood samples (plasma) for ELISA analysis were obtained from Bristol-Myers Squibb Co. sponsored clinical study CA182-002, which is a phase I dose escalation study to determine the safety, pharmacokinetic, and pharmacodynamics of the example VEGFR-2 inhibitor in patients with advanced or metastatic solid tumors. Blood samples were drawn from patients at screening, pre-dose, and post-dose at 4 hours, Day 1, Day 8, Day 26, and end of treatment. Approximately 60 ml of blood was collected for the protocol specific sampling. Detailed instructions regarding the collection, processing, labeling, handling, storage, and shipment of the specimens were provided in the CA182-002 Laboratory Manual.
Collagen type IV ELISA assays were also examined to see if collagen type IV was useful as a biomarker for clinical response to the example VEGFR-2 inhibitor. […] The reduction in collagen type IV blood levels correlated with clinical evidence of anti-tumor activity. […] Overall, the clinical results from these two evaluable patients confirm the pre-clinical data and indicate that collagen type IV ELISA assay is a clinically useful method to monitor response to a VEGFR-2 modulator(s) such as the example VEGFR-2 inhibitor.

L2987 tumor xenograft = assay: In vivo antitumor testing, L2987 tumor xenograft model; design: species or system mouse; conditions: L2987, nude mice, 100 mg/kg 1 qd×26
Procedure: In this example, the Table 2 biomarkers were identified using mouse xenograft tumor models that were treated with the example VEGFR-2 inhibitor.
as §1, with “tumor fragments obtained from donor mice.” for “L2987 and HCT-116 cancer cell lines.”, “(usually between 100-200 mg,” for “(100-200 mm^3,”, “qd×26).” for “qd×14 days).”, “toxicity/mortality.” for “toxicity/mortality. Each group of animals was weighed before the initiation of treatment (Wt1) and then again following the last treatment dose (Wt2).”, “size of 1 gm or became necrotic.” for “size.”
Antitumor activity was determined in terms of primary tumor growth inhibition. This was determined in two ways: (i) calculating the relative median tumor weight (MTW) of treated (T) and control (C) mice at various time points (effects were expressed as % T/C); and (ii) calculating the tumor growth delay (T−C value), defined as the difference in time (days) required for the treated tumors (T) to reach a predetermined target size compared to those of the control group (C). […]

Compound: Cc1cc2c(F)c(Oc3ncnn4cc(OC[C@@H](C)OC(=O)[C@H](C)N)c(C)c34)ccc2[nH]1 [example VEGFR-2 inhibitor, [(1R),2S]-2-Aminopropionic acid 2-[4-(4-fluoro-2-methyl-1H-indol-5-yloxy)-5-methylpyrrolo[2,1-f][1,2,4]triazin-6-yloxy]-1-methylethyl ester]
- amount of Collagen type IV protein detected in the blood following treatment (Collagen type IV): decreased to levels observed in the healthy mice bearing no tumors
- amount of VE-Cadherin protein detected in the blood following treatment (VE-Cadherin): decreased to levels observed in the healthy mice bearing no tumors
- clinical response ([1]; another patient): did not achieve a clinical response
- time patient was on therapy ([1]; another patient, no clinical response): 32 days
- clinical response ([1]; one patient with ampulla of vater carcinoma): partial response
- time patient remained on therapy ([1]; one patient with ampulla of vater carcinoma, partial response): 126 days
- efficacy in mouse xenograft tumor model (L2987 tumor xenograft): highly responsive
